We go through three compounds from patent publication US8034936B2, “Spirocyclic cyclohexane compounds useful to treat substance dependency” (Gruenenthal GmbH, priority 2005, dated 2011).

One experiment has as its system mice. Conditions: mouse, in vivo, ip, 30 mg/kg.
The target of a further experiment is HERG channel (Homo sapiens, UniProt Q12809). The conditions noted are these: read-out: IC50, HERG channel; Katchman et al. 2002; cited from earlier work.
A further experiment has as its target human μ-opiate receptor (Homo sapiens, UniProt P35372). Put plainly: μ-opiate receptor binding, [3H]-naloxone displacement, CHO-K1 membrane preparation. Conditions: No. 1-49.

Usually IC50 stands for the concentration at which inhibition is half-maximal. One may read the Ki as the equilibrium dissociation constant of an inhibitor or competing ligand from its target. Read a low Ki as tighter binding.

human μ-opiate receptor, sequence (P35372 whole entry): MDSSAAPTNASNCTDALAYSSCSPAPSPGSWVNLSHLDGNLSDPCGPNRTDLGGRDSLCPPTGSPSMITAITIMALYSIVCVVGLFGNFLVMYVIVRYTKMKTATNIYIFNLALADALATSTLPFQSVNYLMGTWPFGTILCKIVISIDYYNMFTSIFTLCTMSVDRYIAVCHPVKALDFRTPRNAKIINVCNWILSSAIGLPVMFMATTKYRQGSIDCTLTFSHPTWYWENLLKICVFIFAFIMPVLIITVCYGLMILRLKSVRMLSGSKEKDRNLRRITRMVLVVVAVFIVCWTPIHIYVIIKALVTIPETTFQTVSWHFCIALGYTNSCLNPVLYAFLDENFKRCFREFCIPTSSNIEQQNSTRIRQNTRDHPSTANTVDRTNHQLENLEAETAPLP
HERG channel, sequence (Q12809 whole entry): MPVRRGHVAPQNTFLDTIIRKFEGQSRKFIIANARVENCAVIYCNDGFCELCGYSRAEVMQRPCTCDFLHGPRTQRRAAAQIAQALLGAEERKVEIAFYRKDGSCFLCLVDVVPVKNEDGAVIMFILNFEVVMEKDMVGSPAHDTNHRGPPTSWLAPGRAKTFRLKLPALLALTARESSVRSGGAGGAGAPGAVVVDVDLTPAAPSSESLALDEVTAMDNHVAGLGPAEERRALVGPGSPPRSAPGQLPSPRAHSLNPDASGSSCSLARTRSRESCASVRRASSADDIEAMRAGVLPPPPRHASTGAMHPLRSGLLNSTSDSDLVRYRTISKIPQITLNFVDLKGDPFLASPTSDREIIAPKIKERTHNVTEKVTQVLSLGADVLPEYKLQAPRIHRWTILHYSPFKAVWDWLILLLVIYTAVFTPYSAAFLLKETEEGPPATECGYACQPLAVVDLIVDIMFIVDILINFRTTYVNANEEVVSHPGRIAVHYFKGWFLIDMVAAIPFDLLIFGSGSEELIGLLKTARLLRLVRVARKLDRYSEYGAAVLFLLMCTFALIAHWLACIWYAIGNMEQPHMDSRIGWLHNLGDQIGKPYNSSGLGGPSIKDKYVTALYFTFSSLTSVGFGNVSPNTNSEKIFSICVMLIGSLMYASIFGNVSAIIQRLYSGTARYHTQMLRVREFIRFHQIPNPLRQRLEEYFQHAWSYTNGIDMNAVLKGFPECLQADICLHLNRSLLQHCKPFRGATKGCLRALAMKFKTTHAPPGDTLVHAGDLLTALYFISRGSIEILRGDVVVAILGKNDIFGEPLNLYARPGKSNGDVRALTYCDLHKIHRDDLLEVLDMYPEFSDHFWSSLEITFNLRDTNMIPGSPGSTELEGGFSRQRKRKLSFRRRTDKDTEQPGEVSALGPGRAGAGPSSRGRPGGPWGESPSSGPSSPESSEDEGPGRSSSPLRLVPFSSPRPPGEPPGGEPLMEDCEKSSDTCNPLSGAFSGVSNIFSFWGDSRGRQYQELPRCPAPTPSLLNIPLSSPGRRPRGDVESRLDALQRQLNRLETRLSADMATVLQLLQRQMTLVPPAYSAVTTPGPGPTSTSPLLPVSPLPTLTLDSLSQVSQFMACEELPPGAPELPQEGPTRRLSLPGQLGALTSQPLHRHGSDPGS

Consider `CCC(=O)C(C[C@@H](C)N(C)C)(c1ccccc1)c1ccccc1` [Levomethadone, levomethadone], for which, in the experiment on mice, the “withdrawal jumping triggered by naloxone” value is “induced withdrawal jumping”.

Turning to `CCC(=O)C(CC(C)N(C)C)(c1ccccc1)c1ccccc1` (racemic) [methadone], the IC50 on HERG channel was 9.8 µM.

Regarding `CN(C)C1(c2ccccc2)CCC2(CC1)NCCc1c2oc2ccccc12` (stereo not drawn) [Example 12, 1,1-(3-dimethylamino-3-phenylpentamethylene)-1,3,4,9-tetrahydro-2-aza-9-oxafluorene], the affinity on human μ-opiate receptor, expressed as Ki, was 0.17 µM. That is a sub-micromolar value.
